Results as given in the PolyMetriX glass transition set.

Row | glass transition temperature [°C] | Compound
1 | 179.00 | *=Nc1ccc(/N=C(\c2ccccc2)c2ccc(C(=*)c3ccccc3)cc2)cc1 (repeat unit)
2 | 127.00 | *CC(*)(C)C(=O)OCC1CC(NC(=O)OC(C)(C)C)CN1C(=O)OC(C)(C)C (repeat unit)
3 | 130.00 | *CC(*)(C)C(=O)OCC1COC(c2ccccc2)O1 (repeat unit)
4 | 31.00 | *CC(*)(C)C(=O)OCC1COCCOCCOCCOCCOC1 (repeat unit)
5 | 47.00 | *CC(*)(C)C(=O)OCCC(F)(F)C(F)(F)C(F)(F)C(F)(F)C(F)(F)C(F)(F)C(F)(F)C(F)(F)F (repeat unit)
6 | 27.00 | *CC(*)(C)C(=O)OCCC1CCN(CCCCCCOc2ccc(/N=N/c3ccc([N+](=O)[O-])cc3)cc2)CC1 (repeat unit)
7 | 60.00 | *CC(*)(C)C(=O)OCCCC1CCCCC1 (repeat unit)
8 | 23.00 | *CC(*)(C)C(=O)OCCCCC(F)(F)C(F)(F)C(F)(F)C(F)(F)C(F)(F)C(F)(F)F (repeat unit)
9 | 43.00 | *CC(*)(C)C(=O)OCCCCC1CCCCC1 (repeat unit)
10 | 40.00 | *CC(*)(C)C(=O)OCCCCCC(=O)Oc1ccc(OC(=O)c2ccc(OC)cc2)cc1 (repeat unit)
11 | 40.00 | *CC(*)(C)C(=O)OCCCCCC(=O)Oc1ccc(OC(=O)c2ccc(OCCCC)cc2)cc1 (repeat unit)
12 | 23.00 | *CC(*)(C)C(=O)OCCCCCCC(F)(F)C(F)(F)C(F)(F)C(F)(F)F (repeat unit)
13 | -47.90 | *CC(*)(C)C(=O)OCCCCCCCCCCCC (repeat unit)
14 | 23.00 | *CC(*)(C)C(=O)OCCCCCCCCCCCOc1ccc(/C=N/c2ccc(C#N)cc2)cc1 (repeat unit)
15 | 31.00 | *CC(*)(C)C(=O)OCCCCCCCCCCCn1c2ccccc2c2ccccc21 (repeat unit)
16 | 51.00 | *CC(*)(C)C(=O)OCCCCCCCCCCOc1ccc(/N=N/c2ccc(C#N)cc2)cc1 (repeat unit)
17 | 65.40 | *CC(*)(C)C(=O)OCCCCCCCCCCOc1ccc(C#Cc2cc(C)c(/C=C/c3ccncc3)cc2C)cc1 (repeat unit)
18 | 21.00 | *CC(*)(C)C(=O)OCCCCCCCCCCOc1ccc(OC(=O)c2ccc(OC)cc2)cc1 (repeat unit)
19 | 41.00 | *CC(*)(C)C(=O)OCCCCCCCCCCOc1ccc(OC(=O)c2ccc(OCCCCCC)cc2)cc1 (repeat unit)
20 | 12.00 | *CC(*)(C)C(=O)OCCCCCCCCCCOc1ccc(OC(=O)c2ccc(OCCCCCCCC)cc2)cc1 (repeat unit)
21 | 24.00 | *CC(*)(C)C(=O)OCCCCCCCCCCOc1ccc2cc(C(=O)Oc3ccccc3)ccc2c1 (repeat unit)

Row | glass transition temperature [°C] | Compound
22 | 40.00 | *CC(*)(C)C(=O)OCCCCCCCCCCn1c2ccccc2c2cc(/C=C(\C#N)c3ccc([N+](=O)[O-])cc3)ccc21 (repeat unit)
23 | 55.00 | *CC(*)(C)C(=O)OCCCCCCCCCCn1c2ccccc2c2cc(/C=C/C3=C(C#N)C(=C(C#N)C#N)OC3(C)C)ccc21 (repeat unit)
24 | 36.00 | *CC(*)(C)C(=O)OCCCCCCCCCCn1c2ccccc2c2cc(/N=N/c3ccc([N+](=O)[O-])cc3)ccc21 (repeat unit)
25 | 60.00 | *CC(*)(C)C(=O)OCCCCCCCCCCn1c2ccccc2c2cc(/N=N/c3ccc([N+](=O)[O-])cc3[N+](=O)[O-])ccc21 (repeat unit)
26 | 18.00 | *CC(*)(C)C(=O)OCCCCCCCCCOc1ccc2cc(C(=O)Oc3ccccc3)ccc2c1 (repeat unit)
27 | 35.00 | *CC(*)(C)C(=O)OCCCCCCCCOc1ccc(/N=N/c2ccc(C#N)cc2)cc1 (repeat unit)
28 | 69.00 | *CC(*)(C)C(=O)OCCCCCCCCOc1ccc(C(=O)Oc2ccc(C(=O)/C=C/c3c(C)c4ccccc4n3CCCC)cc2)cc1 (repeat unit)
29 | 100.00 | *CC(*)(C)C(=O)OCCCCCCN(C)c1ccc(/N=N/c2ccc(S(C)(=O)=O)cc2)cc1 (repeat unit)
30 | 83.00 | *CC(*)(C)C(=O)OCCCCCCN1CCN(c2ccc(/N=N/c3ccc(C=C(C#N)C#N)cc3)cc2)CC1 (repeat unit)
31 | 46.00 | *CC(*)(C)C(=O)OCCCCCCOc1ccc(C(=O)Oc2ccc(/N=N/c3ccc(Br)cc3)c3ccccc23)cc1 (repeat unit)
32 | 42.00 | *CC(*)(C)C(=O)OCCCCCCOc1ccc(C(=O)Oc2ccc(/N=N/c3ccc(F)cc3)c3ccccc23)cc1 (repeat unit)
33 | 40.00 | *CC(*)(C)C(=O)OCCCCCCOc1ccc(C(=O)Oc2ccc(/N=N/c3ccc(I)cc3)c3ccccc23)cc1 (repeat unit)
34 | 46.00 | *CC(*)(C)C(=O)OCCCCCCOc1ccc(C(=O)Oc2ccc(/N=N/c3ccccc3)c3ccccc23)cc1 (repeat unit)
35 | 98.00 | *CC(*)(C)C(=O)OCCCCCCOc1ccc(C(=O)Oc2ccc(C(=O)/C=C/c3c(C)c4ccccc4n3C)cc2)cc1 (repeat unit)
36 | 85.00 | *CC(*)(C)C(=O)OCCCCCCOc1ccc(C(=O)Oc2ccc(C(=O)/C=C/c3c(C)c4ccccc4n3CCCC)cc2)cc1 (repeat unit)
37 | 45.00 | *CC(*)(C)C(=O)OCCCCCCOc1ccc(C(=O)Oc2ccc(C)cc2)cc1 (repeat unit)
38 | 49.00 | *CC(*)(C)C(=O)OCCCCCCOc1ccc(C(=O)Oc2ccc(OC)cc2)cc1OC (repeat unit)
39 | 49.00 | *CC(*)(C)C(=O)OCCCCCCOc1ccc(C(=O)Oc2ccc(OCCCC)cc2)cc1 (repeat unit)
40 | 102.00 | *CC(*)(C)C(=O)OCCCCCCOc1ccc(C(=O)Oc2ccc3ccc(=O)oc3c2)cc1 (repeat unit)
41 | 51.00 | *CC(*)(C)C(=O)OCCCCCCOc1ccc(OC(=O)c2ccc(OC)c(Br)c2)cc1 (repeat unit)
42 | 38.00 | *CC(*)(C)C(=O)OCCCCCCOc1ccc(OC(=O)c2ccc(OC)cc2)cc1 (repeat unit)

Row | glass transition temperature [°C] | Compound
43 | 38.00 | *CC(*)(C)C(=O)OCCCCCCOc1cccc(C(=O)Oc2ccc(C#N)cc2)c1 (repeat unit)
44 | 31.00 | *CC(*)(C)C(=O)OCCCCCCc1ccc(/C(C)=C/c2ccc(OC)cc2)cc1 (repeat unit)
45 | 38.00 | *CC(*)(C)C(=O)OCCCCCOc1ccc(OC(=O)c2ccc(OC)cc2)cc1 (repeat unit)
46 | 91.00 | *CC(*)(C)C(=O)OCCCCCn1c2ccccc2c2ccccc21 (repeat unit)
47 | 80.00 | *CC(*)(C)C(=O)OCCCCOc1ccc(/N=N/c2ccc(C#N)cc2)cc1 (repeat unit)
48 | 77.00 | *CC(*)(C)C(=O)OCCCCOc1ccc(OC(=O)c2ccc(-c3ccc(OC)cc3)cc2)cc1 (repeat unit)
49 | 34.00 | *CC(*)(C)C(=O)OCCCCOc1ccc(OC(=O)c2ccc(OCCCCCC)cc2)cc1 (repeat unit)
50 | 12.50 | *CC(*)(C)C(=O)OCCCN(C)c1ccc(N(C)C)cc1 (repeat unit)
51 | 131.00 | *CC(*)(C)C(=O)OCCCN(CCO)c1ccc(/N=N/c2ccc([N+](=O)[O-])cc2)cc1 (repeat unit)
52 | 97.00 | *CC(*)(C)C(=O)OCCCOc1ccc(-c2ccc(C#N)cc2)cc1 (repeat unit)
53 | 9.00 | *CC(*)(C)C(=O)OCCC[Si](OC)(OC)OC (repeat unit)
54 | 123.00 | *CC(*)(C)C(=O)OCCN(C)c1ccc(/N=N/c2ccc(S(=O)(=O)Nc3cc(C)on3)cc2)cc1 (repeat unit)
55 | 43.00 | *CC(*)(C)C(=O)OCCN(C)c1ccc(N(C)C)cc1 (repeat unit)
56 | 119.00 | *CC(*)(C)C(=O)OCCN(CC)c1ccc(/N=N/c2ccc(C#N)cc2)cc1 (repeat unit)
57 | 116.00 | *CC(*)(C)C(=O)OCCN(CC)c1ccc(/N=N/c2ccc([N+](=O)[O-])c3ccccc23)cc1 (repeat unit)
58 | 105.00 | *CC(*)(C)C(=O)OCCN(CCCC)c1ccc(/N=N/c2ccc(S(=O)(=O)Nc3cc(C)on3)cc2)cc1 (repeat unit)
59 | -58.00 | *CC(*)(C)C(=O)OCCOCCOCCOCCOCCOCCOCCOCCOC (repeat unit)
60 | 95.00 | *CC(*)(C)C(=O)OCCOCC[N+](CC)(CC)CCCCS(=O)(=O)O (repeat unit)
61 | 178.00 | *Oc1ccc(/C(C)=N/c2ccc(/N=C(\C)c3ccc(Oc4ccc(C(c5ccccc5)(c5ccccc5)c5ccc(*)cc5)cc4)cc3)cc2)cc1 (repeat unit)

Row | Compound | glass transition temperature [°C]
62 | */C(C)=C(/*)CCCCCCC (repeat unit) | 160.00
63 | *=NP(=NP(=NC(=*)Oc1ccccc1C(F)(F)F)(Oc1ccccc1C(F)(F)F)Oc1ccccc1C(F)(F)F)(Oc1ccccc1C(F)(F)F)Oc1ccccc1C(F)(F)F (repeat unit) | -20.00
64 | *CC(*)(C)C(=O)OCC1CCCO1 (repeat unit) | 105.00
65 | *CC(*)(C)C(=O)OCCCCCCCC (repeat unit) | -11.00
66 | *CC(*)(C)C(=O)OCCCCl (repeat unit) | 50.00
67 | *CC(*)(C)C(=O)OCCN(CC)CC (repeat unit) | 26.00
68 | *CC(*)(C)C(=O)OCCOCC (repeat unit) | -16.00
69 | *N=P(Cl)(N=P(/N=S(/*)Oc1cccc(-c2ccccc2)c1)(Oc1cccc(-c2ccccc2)c1)Oc1cccc(-c2ccccc2)c1)Oc1cccc(-c2ccccc2)c1 (repeat unit) | 32.00
70 | *N=P(N=P(N=S(*)(=O)NCCCC)(NCCCC)NCCCC)(NCCCC)NCCCC (repeat unit) | -16.00
71 | *N=P(N=P(N=S(*)(=O)NCCCCCC)(NCCCCCC)NCCCCCC)(NCCCCCC)NCCCCCC (repeat unit) | -18.00
